Measurements: article PMC3843955 (Antiviral research, 2013)
Where “and” joins values, the source holds several entries; their conditions need not be identical. Equal entries are not always repeated. Where two headings read alike, the source gives them in different places.

How the values were obtained:
HCMV = HCMV inhibition across spread inhibition and yield reduction assays; details: TD50 versus anti-HCMV EC50
MRC-5 fibroblasts = assay: CellTiter-Glo cytotoxicity assay, MRC-5; format: cell-based, human; details: uninfected MRC-5, ± standard deviation; for Yield inhibition MRC-5 TD50: CellTiter-Glo cytotoxicity assay after 5 d exposure to drugs; for Spread inhibition MRC-5 TD50: CellTiter-Glo cytotoxicity assay after 14 d exposure to drugs
[1] = human, in vivo; cited from earlier work
MCMV [2] = details: read-out: EC50 for MCMV, cited from earlier work
MCMV [3] = details: sub-lethal MCMV infection in mice; ref Go et al., 2011; cited from earlier work

Compound	cytotoxicity TD50 fold higher than antiviral EC50 (HCMV)	Yield inhibition MRC-5 TD50 (MRC-5 fibroblasts)	Spread inhibition MRC-5 TD50 (MRC-5 fibroblasts)	peak plasma concentration [1]	EC50 (MCMV [2]; ref Lembo et al., 2000)	peak plasma level [1]	viral load in livers and spleen (MCMV [3])	EC50 (MCMV [2]; ref Go et al., 2011)
N/C(=N\O)c1cc(O)c(O)c(O)c1 [TX, trimidox]	1.5- to 2 fold and 2 fold	166 ± 57 µM	86 ± 4.2 µM					
NC(=O)NO [HU, hydroxyurea]		14,500 ± 5400 µM	4253 ± 701 µM	264 to 660 µM	3 µM			
O=C(NO)c1ccc(O)c(O)c1 [DX, didox]	1.5- to 2 fold and 2 fold	256 ± 5.7 µM	146 ± 0.7 µM			approximately 300 µM	failed to decrease viral load in livers and spleen	10 to 25 µM
